Data from ChEMBL document CHEMBL1151412, “Constituents of Couepia paraensis” (1983).
In brackets after ≈: the same amount, converted by molar mass.

Test system: KB
Experiment: Cytotoxicity against human KB cells
Assay type: functional
Conditions: read-out: ED50 (the source's name)

`COc1c(OC)c(O)c2c(=O)cc(C)oc2c1C` gave an EC50 of 60 µg/mL (≈ 240 µM).
